Laboratory results published in PubChem BioAssay AID2060354 (Molecular Pharmacology Branch, DTP, NCI, 2025).
Each block holds one compound with its values, some of them ahead of it.

Tested on: 519858-162-T-J1-PDC spheroid growth inhibition
Assay: Anticancer human tumor 519858-162-T-J1-PDC patient-derived colon adenocarcinoma cell line growth inhibition [TAK]
Conditions: spheroids with HUVEC and MSC; for viability, T/C: stronger effect = lower value
Excerpt: Combinatorial screen of targeted agents with TAK-243 and ipatasertib in multi-cell type tumor spheroids
A high-throughput screen of multi-cell type tumor spheroids was designed to identify active combinations of targeted small molecules and TAK-243 or ipatasertib. Complex spheroids include a stromal component modeled by human endothelial cells (HUVEC) and fibroblasts modeled by human mesenchymal stem cells (MSCs). The concentration ranges selected for each drug and investigational agent were based upon clinically achievable concentrations if the clinical Cmax of the agent was known.
Compounds. The drugs and investigational agents: TAK-243 (785004), ipatasertib (767898), everolimus (733504), selumetinib (741078), bortezomib (756655), trametinib (758246), ixazomib (758254), vemurafenib (761431), dabrafenib (764134), sapanisertib (764658), alpelisib (765974), and copanlisib (816437), were obtained from the National Cancer Institute (NCI) Developmental Therapeutics Program Chemical Repository. The FDA-approved anticancer drug set is available from the NCI Developmental Therapeutics Program. […] The stock solutions were prepared in dimethyl sulfoxide (DMSO, Sigma-Aldrich, St. Louis, MO, cat. D2650) at 800-fold the tested concentration and stored at -70 degrees C prior to their use. All drugs and investigational agents were tested over a range starting from a high concentration at or near the clinical Cmax and decreasing in half-log increments. If the clinical Cmax for an agent had not been determined, the highest concentration tested was 10 microM.
NCI60 Cell Culture. NCI60 cell lines were obtained from the NCI Developmental Therapeutics Program Tumor Repository. For each lot of cells, the Repository performed Applied Biosystems AmpFLSTR Identifiler testing with PCR amplification to confirm consistency with the published Identifier STR profile for each cell line. Cells were kept in continuous culture for no more than 20 passages. The optimal seeding densities for each of the cell lines at each time point assessed were determined prior to performing the concentration response studies. Briefly, the NCI60 human tumor lines were grown as monolayers in RPMI 1640 medium supplemented with 10% FBS and 2 mmol/L L-glutamine.
An additional 2 lines were from the NCI60 cell line panel including melanomas, MALME-3M and SK-MEL-2. Pooled donor human umbilical vein endothelial cells (HUVEC, Lonza, cat. CC-2519) and human mesenchymal stem cells (hMSC, Lonza, cat. PT-2501) were purchased from Lonza (Walkersville, MD).
PDMR cell lines were grown in complete medium (DC medium): Dulbecco's modified Eagle's medium (DMEM)/F12 supplemented with 5% fetal bovine serum (FBS), 2 mM L-glutamine, 100 U/mL penicillin and 100 µg/ml streptomycin, 0.4 µg/ml hydrocortisone, 10 ng/ml epidermal growth factor (EGF) recombinant human protein, 24 µg/mL adenine, and 0.1 mg/mL primocin. During culture from frozen stock vials, PDMR cells were cultured in the same medium containing 10 µM Y-27632 (see Table 3). The PDCs were cultured in complete DMEM/F12 media without 10 microM Y-27632 dihydrochloride for at least two passages prior to the screen. The pooled donor HUVEC and hMSC were cultured in endothelial cell growth medium 2 (PromoCell, Heidelberg, Germany, cat. C-22011) and mesenchymal stem cell growth medium 2 (PromoCell, cat. C-28009), respectively. For all experiments, HUVEC and hMSC were used at passages </=5.
For the pre-screen, cell seeding densities were determined from a titration spanning the range from 5,000 to 313 cells per well. The mct-spheroids including 60% malignant cells, 25% HUVEC and 15% MSC dispensed as a mixture into U-bottom Ultra-Low Attachment 384-well plates (Corning, NY)
High-throughput Drug Combination Screening.
Prior to their inoculation into 384-well plates, malignant cells, HUVEC, and hMSC were removed from T flasks using TrypLE express (Thermo Fisher Scientific, cat. 12605036) and harvested by centrifugation for 5 min at 233 x g. […]
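Note: spheroids exposed to drugs for 7 days.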

- IC50 (compound alone, run of 02/28/2020): > 30000 nM
SMILES: CC(C)NCC(C(=O)N1CCN(c2ncnc3c2C(C)CC3O)CC1)c1ccc(Cl)cc1 (stereo not drawn)
- viability, T/C (compound 3 µM): 87% [middle of 10 runs]
- viability, T/C (compound 30 µM): 86.8% [middle of 10 runs]

SMILES: CC(C)CC(NC(=O)C(Cc1ccccc1)NC(=O)c1cnccn1)B(O)O (stereo not drawn) + CC(C)NCC(C(=O)N1CCN(c2ncnc3c2C(C)CC3O)CC1)c1ccc(Cl)cc1
- IC50 (curve of first compound, second compound 0.3 µM): > 10 nM
- IC50 (curve of first compound, second compound 0.949 µM): > 10 nM
- IC50 (curve of first compound, second compound 3 µM): > 10 nM
- IC50 (curve of first compound, second compound 9.49 µM): > 10 nM
- IC50 (curve of first compound, second compound 30 µM): > 10 nM
- viability, T/C (second compound 0.3 µM, first compound 31.6 pM): 84.6%
- viability, T/C (second compound 0.3 µM, first compound 0.0001 µM): 80.4%
- viability, T/C (second compound 0.3 µM, first compound 0.000316 µM): 75.7%
- viability, T/C (second compound 0.3 µM, first compound 0.001 µM): 92.6%
- viability, T/C (second compound 0.3 µM, first compound 0.00316 µM): 83.2%
- viability, T/C (second compound 0.3 µM, first compound 0.01 µM): 63.8%
- viability, T/C (second compound 0.949 µM, first compound 31.6 pM): 83.7%
- viability, T/C (second compound 0.949 µM, first compound 0.0001 µM): 97.6%
- viability, T/C (second compound 0.949 µM, first compound 0.000316 µM): 86.4%
- viability, T/C (second compound 0.949 µM, first compound 0.001 µM): 88.9%
- viability, T/C (second compound 0.949 µM, first compound 0.00316 µM): 95.6%
- viability, T/C (second compound 0.949 µM, first compound 0.01 µM): 69.7%
- viability, T/C (second compound 3 µM, first compound 31.6 pM): 84.4%
- viability, T/C (second compound 3 µM, first compound 0.0001 µM): 84.7%
- viability, T/C (second compound 3 µM, first compound 0.000316 µM): 67.9%
- viability, T/C (second compound 3 µM, first compound 0.001 µM): 84.4%
- viability, T/C (second compound 3 µM, first compound 0.00316 µM): 78.7%
- viability, T/C (second compound 3 µM, first compound 0.01 µM): 77.1%
- viability, T/C (second compound 9.49 µM, first compound 31.6 pM): 100%
- viability, T/C (second compound 9.49 µM, first compound 0.0001 µM): 88.2%
- viability, T/C (second compound 9.49 µM, first compound 0.000316 µM): 110%
- viability, T/C (second compound 9.49 µM, first compound 0.001 µM): 83.2%
- viability, T/C (second compound 9.49 µM, first compound 0.00316 µM): 66.2%
- viability, T/C (second compound 9.49 µM, first compound 0.01 µM): 82.8%
- viability, T/C (second compound 30 µM, first compound 31.6 pM): 85.2%
- viability, T/C (second compound 30 µM, first compound 0.0001 µM): 97.1%
- viability, T/C (second compound 30 µM, first compound 0.000316 µM): 96.7%
- viability, T/C (second compound 30 µM, first compound 0.001 µM): 88.4%
- viability, T/C (second compound 30 µM, first compound 0.00316 µM): 85.2%
- viability, T/C (second compound 30 µM, first compound 0.01 µM): 78%
